{"source": "the Kinase Knowledgebase extract (Sharma et al. 2016)", "biological_target": "CDK2 (UniProt P24941)", "test": "Enzyme Assay", "data": [{"compound": "CCCc1cccc(NC(=O)Nc2cccc(-c3cccnc3)c2)n1", "values": [{"measurement": "IC50", "value": "< 50", "unit": "µM"}]}, {"compound": "O=C(Nc1ccccn1)Nc1csc(-c2ccccn2)n1", "values": [{"measurement": "IC50", "value": "< 50", "unit": "µM"}]}, {"compound": "Cc1cccc(NC(=O)Nc2csc(-c3cccnc3)n2)n1", "values": [{"measurement": "IC50", "value": "< 50", "unit": "µM"}]}, {"compound": "CCCc1cccc(NC(=O)Nc2csc(-c3ccncc3)n2)n1", "values": [{"measurement": "IC50", "value": "< 50", "unit": "µM"}]}, {"compound": "O=C(Nc1ccccn1)Nc1csc(-c2cccnc2)n1", "values": [{"measurement": "IC50", "value": "< 50", "unit": "µM"}]}, {"compound": "O=C(Nc1csc(-c2ccncc2)n1)Nc1csc(-c2ccncc2)n1", "values": [{"measurement": "IC50", "value": "< 50", "unit": "µM"}]}, {"compound": "O=C(Nc1csc(-c2cccnc2)n1)Nc1nc(-c2ccccc2)cs1", "values": [{"measurement": "IC50", "value": "< 50", "unit": "µM"}]}, {"compound": "O=C(Nc1csc(-c2ccncc2)n1)Nc1ccc2ccccc2n1", "values": [{"measurement": "IC50", "value": "< 50", "unit": "µM"}]}, {"compound": "O=C(Nc1cccc(NCCCN2CCOCC2)n1)Nc1csc(-c2ccncc2)n1", "values": [{"measurement": "IC50", "value": "< 50", "unit": "µM"}]}, {"compound": "O=C(Nc1csc(-c2cccnc2)n1)Nc1nc(-c2cccnc2)cs1", "values": [{"measurement": "IC50", "value": "< 50", "unit": "µM"}]}, {"compound": "O=C(Nc1ccccn1)Nc1csc(-c2ccncc2)n1", "values": [{"measurement": "IC50", "value": "< 50", "unit": "µM"}]}, {"compound": "Cc1cccnc1NC(=O)Nc1csc(-c2ccncc2)n1", "values": [{"measurement": "IC50", "value": "< 50", "unit": "µM"}]}, {"compound": "CCCc1cccc(NC(=O)Nc2csc(-c3ccnc(CC)c3)n2)n1", "values": [{"measurement": "IC50", "value": "< 50", "unit": "µM"}]}, {"compound": "CCN(CC)Cc1cccc(NC(=O)Nc2csc(-c3ccncc3)n2)n1", "values": [{"measurement": "IC50", "value": "< 50", "unit": "µM"}]}, {"compound": "O=C(Nc1csc(-c2ccncc2)n1)Nc1nc(-c2cccnc2)cs1", "values": [{"measurement": "IC50", "value": "< 50", "unit": "µM"}]}, {"compound": "Cc1cccc(NC(=O)Nc2csc(-c3ccncc3)n2)n1", "values": [{"measurement": "IC50", "value": "< 50", "unit": "µM"}]}, {"compound": "O=C(Nc1cccc(N2CCCCC2)n1)Nc1csc(-c2ccncc2)n1", "values": [{"measurement": "IC50", "value": "< 50", "unit": "µM"}]}, {"compound": "CN(C)CCNc1cccc(NC(=O)Nc2csc(-c3ccncc3)n2)n1", "values": [{"measurement": "IC50", "value": "< 50", "unit": "µM"}]}, {"compound": "CCc1ccnc(NC(=O)Nc2csc(-c3ccncc3)n2)c1", "values": [{"measurement": "IC50", "value": "< 50", "unit": "µM"}]}, {"compound": "Cc1ccc(NC(=O)Nc2csc(-c3ccncc3)n2)nc1", "values": [{"measurement": "IC50", "value": "< 50", "unit": "µM"}]}, {"compound": "CN1CCN(c2cccc(NC(=O)Nc3csc(-c4ccncc4)n3)n2)CC1", "values": [{"measurement": "IC50", "value": "< 50", "unit": "µM"}]}, {"compound": "O=C(Nc1csc(-c2ccncc2)n1)Nc1cccc2[nH]cnc12", "values": [{"measurement": "IC50", "value": "< 50", "unit": "µM"}]}, {"compound": "O=C(Nc1csc(-c2ccncc2)n1)Nc1nccs1", "values": [{"measurement": "IC50", "value": "< 50", "unit": "µM"}]}, {"compound": "CCN(CC)c1cccc(NC(=O)Nc2csc(-c3ccncc3)n2)n1", "values": [{"measurement": "IC50", "value": "< 50", "unit": "µM"}]}, {"compound": "NC(=O)c1ccc(NC(=O)Nc2csc(-c3ccncc3)n2)nc1", "values": [{"measurement": "IC50", "value": "< 50", "unit": "µM"}]}, {"compound": "O=C(Nc1csc(-c2cccnc2)n1)Nc1csc(-c2cccnc2)n1", "values": [{"measurement": "IC50", "value": "< 50", "unit": "µM"}]}, {"compound": "CCc1cccc(NC(=O)Nc2csc(-c3ccncc3)n2)n1", "values": [{"measurement": "IC50", "value": "< 50", "unit": "µM"}]}, {"compound": "O=C(Nc1csc(-c2ccncc2)n1)Nc1cc2ccccc2c(Br)n1", "values": [{"measurement": "IC50", "value": "< 50", "unit": "µM"}]}, {"compound": "O=C(Nc1csc(-c2cccnc2)n1)Nc1nccs1", "values": [{"measurement": "IC50", "value": "< 50", "unit": "µM"}]}, {"compound": "CN(C(=O)Nc1csc(-c2ccncc2)n1)c1ccccn1", "values": [{"measurement": "IC50", "value": "< 50", "unit": "µM"}]}, {"compound": "O=C(Nc1ccc(C(F)(F)F)cn1)Nc1csc(-c2ccncc2)n1", "values": [{"measurement": "IC50", "value": "< 50", "unit": "µM"}]}, {"compound": "O=C(Nc1cccc(N2CCOCC2)n1)Nc1csc(-c2ccncc2)n1", "values": [{"measurement": "IC50", "value": "< 50", "unit": "µM"}]}]}
